# Results as given in US7132536B2, “Triaza- and tetraaza-anthracenedione derivatives, their preparation and their use as pharmaceuticals” (Sanofi-aventis Deutschland GmbH, priority 2003, dated 2006).
# Structures can show the parent of a compound that is named as a salt.
# System: eNOS promoter
# Experiment: Activation of eNOS transcription (eNOS promoter-luciferase reporter gene assay)
# Format: cell-based
# Settings: human endothelial cell line stably transfected with eNOS promoter-firefly luciferase construct; 18 h incubation; EC50 determined graphically; read-out: EC50 of transcription induction ratio (TIR)
# Experimental: Activation of eNOS transcription was measured as described in detail by Li et al., “Activation of protein kinase C alpha and/or epsilon enhances transcription of the human endothelial nitric oxide synthase gene”, Mol. Pharmacol. 53 (1998) 630. Briefly, a 3.5 kB long fragment 5′ of the starting codon of the eNOS gene was cloned, sequenced and cloned in firefly luciferase expression plasmids to monitor activation of the eNOS promoter by reporter gene activity. A human endothelial cell line stable transfected and expressing this promoter-reporter construct was used for compound testing. Cells were incubated for 18 h with the compounds.
# All compounds were dissolved in sterile dimethylsulfoxide (DMSO). A final concentration of 0.5% DMSO in complete medium was allowed. Induction of reporter gene expression in these cells was measured using a standard luciferase assay system (Promega, Cat. No. E150) according to the manufacturer's instructions. Luciferase induction in cells incubated with compounds were compared to those incubated with solvent alone. The ratio of both activities (transcription induction ratio, TIR) was plotted as a function of compound concentration. Typically, TIR values started at low concentrations at a ratio of 1, indicating no compound effect, and extended up to a maximum TIR value TIR(max) which indicates the increase of the eNOS transcription. EC50 values of transcription induction ratios as a function of compound concentration were determined graphically.
row,EC50,SMILES
1,0.4 µM,"CC[C@H]1C(=O)N(Cc2ccc(C(C)(C)C)cc2)CC2N(CCCn3ccnc3)c3ccc([N+](=O)[O-])cc3C(=O)N21 (stereo partly drawn) [Example 38, (4S)-2-(4-tert-Butylbenzyl)-4-ethyl-9-(3-(imidazol-1-yl)propyl)-6-nitro-1,2,9,9a-tetrahydro-2,4a,9-triaza-anthracene-3,10(4H)-dione trifluoroacetic acid salt]"
2,0.29 µM,"CC(C)C1C(=O)N(Cc2ccc(C(C)(C)C)cc2)CC2N(CCCn3ccnc3)c3ccc([N+](=O)[O-])cc3C(=O)N12 (stereo not drawn) [Example 39, 2-(4-tert-Butylbenzyl)-9-(3-(imidazol-1-yl)propyl)-4-isopropyl-6-nitro-1,2,9,9a-tetrahydro-2,4a,9-triaza-anthracene-3,10(4H)-dione trifluoroacetic acid salt]"
3,0.22 µM,"CCC1C(=O)N(Cc2ccc(C(C)(C)C)cc2)CC2N(CCc3ccncc3)c3ccc([N+](=O)[O-])cc3C(=O)N12 (stereo not drawn) [Example 40, 2-(4-tert-Butylbenzyl)-4-ethyl-6-nitro-9-(2-(pyridin-4-yl)ethyl)-1,2,9,9a-tetrahydro-2,4a,9-triaza-anthracene-3,10(4H)-dione trifluoroacetic acid salt]"
4,4 µM,"CC(C)[C@H]1C(=O)N(Cc2ccc(C(C)(C)C)cc2)CC2N(CCCn3ccnc3)c3ccc(C(F)(F)F)cc3C(=O)N21 (stereo partly drawn) [Example 15, (4S)-2-(4-tert-Butylbenzyl)-9-(3-(imidazol-1-yl)propyl)-4-isopropyl-6-trifluoromethyl-1,2,9,9a-tetrahydro-2,4a,9-triaza-anthracene-3,10(4H)-dione trifluoroacetic acid salt]"
5,100 µM,"CC(C)C1C(=O)N(Cc2ccc(C(C)(C)C)cc2)CC2N(CCCn3ccnc3)c3cccnc3C(=O)N12 (stereo not drawn) [Example 36, 6-(4-tert-Butylbenzyl)-10-(3-(imidazol-1-yl)propyl)-8-isopropyl-5,6,10,10a-tetrahydro-1,6,8a,10-tetraaza-anthracene-7,9(8H)-dione trifluoroacetic acid salt]"
6,100 µM,"Cc1ccc2c(n1)C(=O)N1C(C(C)C)C(=O)N(Cc3ccc(C(C)(C)C)cc3)CC1N2CCCn1ccnc1 (stereo not drawn) [Example 37, 6-(4-tert-Butylbenzyl)-10-(3-(imidazol-1-yl)propyl)-8-isopropyl-2-methyl-5,6,10,10a-tetrahydro-1,6,8a,10-tetraaza-anthracene-7,9(8H)-dione trifluoroacetic acid salt]"
7,8 µM,"O=C1[C@H](Cc2cccc(F)c2)N2C(=O)c3cc(C(F)(F)F)ccc3N(CCCn3ccnc3)C2CN1CCCCc1ccccc1 (stereo partly drawn) [Example 16, (4S)-4-(3-Fluorobenzyl)-9-(3-(imidazol-1-yl)propyl)-2-(4-phenylbutyl)-6-trifluoromethyl-1,2,9,9a-tetrahydro-2,4a,9-triaza-anthracene-3,10(4H)-dione trifluoroacetic acid salt]"

# More lines, now with the values behind:
row,SMILES,EC50
1,"CC(C)[C@H]1C(=O)N(CCCCc2ccccc2)CC2N(CCc3ccncc3)c3ccc([N+](=O)[O-])cc3C(=O)N21 (stereo partly drawn) [Example 7, (4S)-4-Isopropyl-6-nitro-2-(4-phenylbutyl)-9-(2-(pyridin-4-yl)ethyl)-1,2,9,9a-tetrahydro-2,4a,9-triaza-anthracene-3,10(4H)-dione trifluoroacetic acid salt]",20 µM
2,"CC(C)[C@H]1C(=O)N(Cc2ccc(C(F)(F)F)cc2)CC2N(CCCn3ccnc3)c3ccc(C(F)(F)F)cc3C(=O)N21 (stereo partly drawn) [Example 11, (4S)-9-(3-(Imidazol-1-yl)propyl)-4-isopropyl-6-trifluoromethyl-2-(4-trifluoromethyl-benzyl)-1,2,9,9a-tetrahydro-2,4a,9-triaza-anthracene-3,10(4H)-dione trifluoroacetic acid salt]",20 µM
3,"O=C1[C@H](C2CCCCC2)N2C(=O)c3cc(C(F)(F)F)ccc3N(CCCn3ccnc3)C2CN1CCCCc1ccccc1 (stereo partly drawn) [Example 13, (4S)-4-Cyclohexyl-9-(3-(imidazol-1-yl)propyl)-2-(4-phenylbutyl)-6-trifluoromethyl-1,2,9,9a-tetrahydro-2,4a,9-triaza-anthracene-3,10(4H)-dione trifluoroacetic acid salt]",7 µM
4,"CC(C)[C@H]1C(=O)N(Cc2cccc3ccccc23)CC2N(CCCn3ccnc3)c3ccc([N+](=O)[O-])cc3C(=O)N21 (stereo partly drawn) [Example 3, (4S)-9-(3-(Imidazol-1-yl)propyl)-4-isopropyl-2-(naphth-1-ylmethyl)-6-nitro-1,2,9,9a-tetrahydro-2,4a,9-triaza-anthracene-3,10(4H)-dione trifluoroacetic acid salt]",20 µM
5,"CC(C)[C@H]1C(=O)N(Cc2ccc(C(C)(C)C)cc2)CC2N(CCCn3ccnc3)c3ccc([N+](=O)[O-])cc3C(=O)N21 (stereo partly drawn) [Example 2, (4S)-2-(4-tert-Butylbenzyl)-9-(3-(imidazol-1-yl)propyl)-4-isopropyl-6-nitro-1,2,9,9a-tetrahydro-2,4a,9-triaza-anthracene-3,10(4H)-dione trifluoroacetic acid salt]",1.2 µM
6,"CC(C)[C@H]1C(=O)N(Cc2ccc(C(F)(F)F)cc2)CC2N(CCc3ccncc3)c3ccc(C(F)(F)F)cc3C(=O)N21 (stereo partly drawn) [Example 12, (4S)-4-Isopropyl-9-(2-(pyridin-4-yl)ethyl)-6-trifluoromethyl-2-(4-trifluoromethylbenzyl)-1,2,9,9a-tetrahydro-2,4a,9-triaza-anthracene-3,10(4H)-dione trifluoroacetic acid salt]",20 µM
7,"CC(C)[C@H]1C(=O)N(CCCCc2ccccc2)CC2N(CCCn3ccnc3)c3ccc(C(F)(F)F)cc3C(=O)N21 (stereo partly drawn) [Example 10, (4S)-9-(3-(Imidazol-1-yl)propyl)-4-isopropyl-2-(4-phenylbutyl)-6-trifluoromethyl-1,2,9,9a-tetrahydro-2,4a,9-triaza-anthracene-3,10(4H)-dione trifluoroacetic acid salt]",12 µM
8,"O=C1[C@H](Cc2c[nH]cn2)N2C(=O)c3cc([N+](=O)[O-])ccc3N(CCCCc3ccccc3)C2CN1CCCCc1ccccc1 (stereo partly drawn) [Example 8, (4S)-4-(1H—Imidazol-4-ylmethyl)-6-nitro-2,9-bis(4-phenylbutyl)-1,2,9,9a-tetrahydro-2,4a,9-triaza-anthracene-3,10(4H)-dione trifluoroacetic acid salt]",6 µM
9,"O=C1[C@H](Cc2cccc(F)c2)N2C(=O)c3cc([N+](=O)[O-])ccc3N(CCCn3ccnc3)C2CN1CCCCc1ccccc1 (stereo partly drawn) [Example 4, (4S)-4-(3-Fluorobenzyl)-9-(3-(imidazol-1-yl)propyl)-6-nitro-2-(4-phenylbutyl)-1,2,9,9a-tetrahydro-2,4a,9-triaza-anthracene-3,10(4H)-dione trifluoroacetic acid salt]",8 µM
10,"O=C1[C@H](C2CCCCC2)N2C(=O)c3cc([N+](=O)[O-])ccc3N(CCCn3ccnc3)C2CN1CCCCc1ccccc1 (stereo partly drawn) [Example 5, (4S)-4-Cyclohexyl-9-(3-(imidazol-1-yl)propyl)-6-nitro-2-(4-phenylbutyl)-1,2,9,9a-tetrahydro-2,4a,9-triaza-anthracene-3,10(4H)-dione trifluoroacetic acid salt]",2.8 µM
11,"O=C1[C@H](Cc2c[nH]cn2)N2C(=O)c3cc([N+](=O)[O-])ccc3N(Cc3ccc(OC(F)(F)F)cc3)C2CN1CCCCc1ccccc1 (stereo partly drawn) [Example 9, (4S)-4-(1H-Imidazol-4-ylmethyl)-6-nitro-2-(4-phenylbutyl)-9-(4-trifluoromethoxy-benzyl)-1,2,9,9a-tetrahydro-2,4a,9-triaza-anthracene-3,10(4H)-dione trifluoroacetic acid salt]",8.4 µM
12,"COc1ccc(CN2CC3N(CCCn4ccnc4)c4ccc(C(F)(F)F)cc4C(=O)N3[C@@H](C(C)C)C2=O)c(OC)c1 (stereo partly drawn) [Example 14, (4S)-2-(2,4-Dimethoxybenzyl)-9-(3-(imidazol-1-yl)propyl)-4-isopropyl-6-trifluoromethyl-1,2,9,9a-tetrahydro-2,4a,9-triaza-anthracene-3,10(4H)-dione trifluoroacetic acid salt]",12 µM
13,"COc1ccc(C[C@H]2C(=O)N(CCCCc3ccccc3)CC3N(CCCn4ccnc4)c4ccc([N+](=O)[O-])cc4C(=O)N32)cc1OC (stereo partly drawn) [Example 6, (4S)-4-(3,4-Dimethoxybenzyl)-9-(3-(imidazol-1-yl)propyl)-6-nitro-2-(4-phenylbutyl)-1,2,9,9a-tetrahydro-2,4a,9-triaza-anthracene-3,10(4H)-dione trifluoroacetic acid salt]",24 µM
14,"CC(C)[C@H]1C(=O)N(CCCCc2ccccc2)CC2N(CCCn3ccnc3)c3ccc([N+](=O)[O-])cc3C(=O)N21 (stereo partly drawn) [Example 1, (4S)-9-(3-(Imidazol-1-yl)propyl)-4-isopropyl-6-nitro-2-(4-phenylbutyl)-1,2,9,9a-tetrahydro-2,4a,9-triaza-anthracene-3,10(4H)-dione trifluoroacetic acid salt]",2.2 µM
